Experimental data: patent US10624916B2, “Nutritional formulations using human milk oligosaccharides for modulating inflammation” (ABBOTT LABORATORIES, priority 2012, dated 2020)

System: platelet neutrophil complex (PNC) formation
Assay: in vitro simulation of PNC formation (ADP-stimulated, % CD11b+CD42a+ events)
Type: cell-based, human
Details: 125 μg/mL; for individuals in whom PNC formation decreased: 3 donors, Table 4; for effect on PNC formation (in words): 15 minute ingredient incubation, n=2-3 individuals, FIG. 1; for % CD11b+CD42a+ in the tested condition as a percent of those events that were CD11b+CD42a+ under ADP stimulation, average: average of subjects; for % CD11b+CD42a+ in the tested condition as a percent of those events that were CD11b+CD42a+ under ADP stimulation, average / % CD11b+CD42a+ in the tested condition as a percent of those events that were CD11b+CD42a+ under ADP stimulation: 15 minutes with ingredient, then ADP (10 μM) 15 minutes
Protocol: Data was generated using an in vitro simulation of PNC formation with a 15 minute ingredient incubation period.
Test concentration was 125 μg/mL for all ingredients tested. Cells were incubated with test ingredients or medium alone (ADP) for 15 minutes. ADP (10 μM) was added to each tube and incubated for 15 minutes. The ADP alone contained no test ingredient. Data is expressed as % CD11b+CD42a+ in the tested conditions as a percent of those events that were CD11b+CD42a+ under ADP stimulation.

Row | Compound | individuals in whom PNC formation decreased | effect on PNC formation (in words) | % CD11b+CD42a+ in the tested condition as a percent of those events that were CD11b+CD42a+ under ADP stimulation, average [%] | % CD11b+CD42a+ in the tested condition as a percent of those events that were CD11b+CD42a+ under ADP stimulation (subject 1) [%] | % CD11b+CD42a+ in the tested condition as a percent of those events that were CD11b+CD42a+ under ADP stimulation (subject 2) [%] | % CD11b+CD42a+ in the tested condition as a percent of those events that were CD11b+CD42a+ under ADP stimulation (subject 3) [%]
1 | 2′-fucosyllactose [2′FL] | decreased PNC formation in all 3 individuals tested | significantly reduces PNC formation | 66.9 | 87.8 | 62.1 | 50.7
2 | 3-fucosyllactose [3FL] |  | did not decrease PNC formation | 83.1 | 80.8 | 64.3 | 104.1
3 | CC(=O)N[C@H]1[C@H](O[C@H]2[C@@H](O)[C@@H](CO)O[C@@H](O[C@H]3[C@H](O)[C@@H](O)C(O)O[C@@H]3CO)[C@@H]2O)O[C@H](CO)[C@@H](O[C@@H]2O[C@H](CO)[C@H](O)[C@H](O)[C@H]2O)[C@@H]1O (mixture of isomers) [LNnT, lacto-N-neotetraose] | decreased PNC formation in 2 out of the 3 subjects tested |  | 75.4 | 102.3 | 82.9 | 41.1
4 | CC(=O)N[C@H]1[C@H]([C@H](O)[C@H](O)CO)O[C@@](O[C@H]2[C@@H](O)[C@@H](CO)O[C@@H](O[C@H]3[C@H](O)[C@@H](O)C(O)O[C@@H]3CO)[C@@H]2O)(C(=O)O)C[C@@H]1O (some centres unmarked) [3′SL, 3′-sialyllactose, reference compound] |  | do not decrease PNC formation | 99.2 | 91.3 | 89.3 | 117.1
5 | CC(=O)N[C@H]1[C@H]([C@H](O)[C@H](O)CO)O[C@@](OC[C@H]2O[C@@H](O[C@H]3[C@H](O)[C@@H](O)[C@H](O)O[C@@H]3CO)[C@H](O)[C@@H](O)[C@H]2O)(C(=O)O)C[C@@H]1O [6′SL, 6′-sialyllactose, reference compound] |  | do not decrease PNC formation | 94.2 | 90.1 | 59.8 | 132.8
